From BindingDB's records for doi:10.1124/mol.51.1.109 (Max-Planck Institute For Experimental Medicine, 1997)
pKi: −log10 of the molar value.

Legend:
P2X purinoceptor 4 [1] = biological target: T1, P2X purinoceptor 4 (Homo sapiens, UniProt Q99571)
T1 sequence (Q99571 whole entry): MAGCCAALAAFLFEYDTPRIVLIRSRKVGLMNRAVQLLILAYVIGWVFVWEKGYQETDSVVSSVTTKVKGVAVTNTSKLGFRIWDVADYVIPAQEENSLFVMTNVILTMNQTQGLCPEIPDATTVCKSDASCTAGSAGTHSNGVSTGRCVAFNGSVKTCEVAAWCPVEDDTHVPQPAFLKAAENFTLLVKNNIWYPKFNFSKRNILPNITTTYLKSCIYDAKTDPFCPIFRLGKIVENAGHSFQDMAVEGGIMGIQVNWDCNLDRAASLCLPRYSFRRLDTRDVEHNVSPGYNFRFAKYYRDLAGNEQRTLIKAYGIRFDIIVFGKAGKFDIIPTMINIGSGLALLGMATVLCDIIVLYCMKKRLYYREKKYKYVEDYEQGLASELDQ

P2X purinoceptor 4 [2] = biological target: T2, P2X purinoceptor 4 (Rattus norvegicus, UniProt P51577)
T2 sequence (P51577 whole entry): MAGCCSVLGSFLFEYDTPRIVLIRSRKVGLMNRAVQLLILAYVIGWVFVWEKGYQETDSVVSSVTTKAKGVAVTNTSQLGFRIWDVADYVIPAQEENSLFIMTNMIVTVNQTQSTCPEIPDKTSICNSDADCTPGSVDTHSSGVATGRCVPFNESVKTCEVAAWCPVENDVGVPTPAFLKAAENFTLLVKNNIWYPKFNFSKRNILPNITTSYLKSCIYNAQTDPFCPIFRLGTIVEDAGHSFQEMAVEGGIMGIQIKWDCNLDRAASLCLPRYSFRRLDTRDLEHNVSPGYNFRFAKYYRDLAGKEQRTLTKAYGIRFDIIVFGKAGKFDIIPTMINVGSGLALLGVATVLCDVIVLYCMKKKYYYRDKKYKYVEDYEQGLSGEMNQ

Compound	pKi (P2X purinoceptor 4 [2])	pKi (P2X purinoceptor 4 [1])
O=S1(=O)OC(c2cc(Br)c(O)c(Br)c2)(c2cc(Br)c(O)c(Br)c2)c2ccccc21 [NSC_8272]	6.52	7.11
Nc1c(S(=O)(=O)O)cc(Nc2ccc(Nc3nc(Cl)nc(Nc4cccc(S(=O)(=O)O)c4)n3)c(S(=O)(=O)O)c2)c2c1C(=O)c1ccccc1C2=O	7.34	

Now from value to molecule, other results behind:

pKi (P2X purinoceptor 4 [2])	Compound	pKi (P2X purinoceptor 4 [1])
6.89	Nc1c(S(=O)(=O)O)cc(Nc2ccc(Nc3nc(Cl)nc(Nc4ccccc4S(=O)(=O)O)n3)c(S(=O)(=O)O)c2)c2c1C(=O)c1ccccc1C2=O	
6.30	Cc1nc(/N=N/c2ccc(S(=O)(=O)O)cc2S(=O)(=O)O)c(COP(=O)(O)O)c(C=O)c1O	
6.30	Cc1ccc(C(=O)Nc2ccc(S(=O)(=O)O)c3cc(S(=O)(=O)O)cc(S(=O)(=O)O)c23)cc1NC(=O)c1cccc(NC(=O)Nc2cccc(C(=O)Nc3cc(C(=O)Nc4ccc(S(=O)(=O)O)c5cc(S(=O)(=O)O)cc(S(=O)(=O)O)c45)ccc3C)c2)c1 [suramin]	6.75
